# Patent publication US6653342B2, “13-substituted milbemycin derivatives, their preparation and their use against insects and other pests” (Sankyo Company, Limited, priority 2000, dated 2003)
# Experiments:
# Format in all cases: in vivo
# cat fleas [1] = assay: whole plant or invertebrate; settings: 1 ppm in bovine serum sucked through Parafilm at 37° C., dead fleas after 48 hours, 20 fleas per group, corrected by control group
# Method: (§1) A test container wherein the living space of fleas was isolated from bovine serum by use of Parafilm™ (obtainable from Aldrich Chemical Co. Ltd.), which is usually used as an artificial skin, was prepared. A compound to be tested was added to the bovine serum in an amount sufficient for its concentration to be 1 ppm, and the fleas were allowed to suck the serum sample through the Parafilm™ at 37° C. Each group consisted of 20 fleas. […] By counting the dead fleas in a control group without a test compound, the mortality was corrected.
# cat fleas [2] = assay: Test on insecticidal effect against cat fleas (Test Example 12, serum feeding through Parafilm); settings: 1 ppm in bovine serum, 37° C., after 48 hours, corrected by control group
# Method: as §1
# two-spotted spider mites = assay: Test on miticidal effect against two-spotted spider mites, cowpea leaf dip (Test Example 9); settings: for The death rate of mites (%): cowpea leaf dip, 2 days after treatment; for Death rate of hatchlings (%) / Death rate of mite eggs (%): 7 days after treatment; for Death rate of mite eggs (%): unhatched eggs; for The egg of two-spotted spider mite (7 days after) dead: number of dead eggs of total 20
# Method: The remainder of the test compound solution was removed and the treated leaf was allowed to stand in a Petri dish containing a sponge covered with a filter paper soaked in water. After the test compound solution on the leaf had dried, eggs of the mites were marked. The leaf was then allowed to stand at 25° C. on the Petri dish without a lid. Two days after treatment with the test compound, the death rate of mites (expressed as a percentage of the total number of mites) was determined. Seven to ten days after the treatment, the “death rate” of the mite eggs (expressed as the percentage of the total number of mite eggs which were unhatched) and the death rate of the hatchlings (expressed as the percentage of the total number of hatchlings which were killed) was estimated. The test was repeated at different concentrations of the test compound. “Untreated” in this test means the control test in which water was used instead of the test compound solution.
smiles,measurement,setting,value
"CCC1OC2(CCC1C)CC1CC(CC=C(C)C(OC(=O)C3(c4ccc(NC(C)=O)cc4)CCCC3)C(C)C=CC=C3COC4C(O)C(C)=CC(C(=O)O1)C34O)O2 (stereo not drawn) [Example 2, 13-[1-(4-Acetylaminophenyl)cyclopentanecarbonyloxy]-5-hydroxymilbemycin A4]",Mortality (%),cat fleas [1],95.0%
"CCC1OC2(CCC1C)CC1CC(CC=C(C)C(OC(=O)C3(c4ccc(NC(=O)CN(C)C(C)=O)cc4)CCCC3)C(C)C=CC=C3COC4C(O)C(C)=CC(C(=O)O1)C34O)O2 (stereo not drawn) [Example 6, 13-{1-[4-(N-Acetyl-N-methylglycylamino)phenyl]cyclopentanecarbonyloxy}-5-hydroxymilbemycin A4]",Mortality (%),cat fleas [1],79.5%
"CCC1OC2(CCC1C)CC1CC(CC=C(C)C(OC(=O)C3(c4ccc(NC(=O)COC)cc4)CCC3)C(C)C=CC=C3COC4C(O)C(C)=CC(C(=O)O1)C34O)O2 (stereo not drawn) [Example 15, 13-[1-(4-Methoxyacetylaminophenyl)cyclobutanecarbonyloxy]-5-hydroxy-milbemycin A4]",Mortality (%),cat fleas [2],100%
"CC1=CC2C(=O)OC3CC(CC=C(C)C(OC(=O)C4(c5ccc(NS(C)(=O)=O)cc5)CCCC4)C(C)C=CC=C4COC(C1O)C42O)OC1(CCC(C)C(C)O1)C3 (stereo not drawn) [Example 9, 13-[1-(4-Methanesulfonylaminophenyl)cyclopentanecarbonyloxy]-5-hydroxy-milbemycin A3]",Mortality (%),cat fleas [1],83.2%
"CCC1OC2(CCC1C)CC1CC(CC=C(C)C(OC(=O)C3(c4ccc(NC(=O)C(F)(F)F)cc4)CCC3)C(C)C=CC=C3COC4C(O)C(C)=CC(C(=O)O1)C34O)O2 (stereo not drawn) [Example 18, 13-[1-(4-Trifluoroacetylaminophenyl)cyclobutanecarbonyloxy]-5-hydroxy-milbemycin A4]",Mortality (%),cat fleas [2],91.5%
"CCC1OC2(CCC1C)CC1CC(CC=C(C)C(OC(=O)C3(c4ccc(N)cc4)CCCC3)C(C)C=CC=C3COC4C(O)C(C)=CC(C(=O)O1)C34O)O2 (stereo not drawn) [Example 1(b), 13-[1-(4-Aminophenyl)cyclopentanecarbonyloxy]-5-hydroxymilbemycin A4]",Mortality (%),cat fleas [1],95.0%
"CC[C@H]1O[C@]2(CC[C@@H]1C)C[C@@H]1C[C@@H](C/C=C(\C)[C@H](OC(=O)C3(c4ccccc4)CCCC3)[C@@H](C)/C=C/C=C3\CO[C@@H]4[C@H](O)C(C)=C[C@@H](C(=O)O1)[C@]34O)O2 [Comparative Compound A, reference compound]",mortality at 1 ppm,cat fleas [2]; Ctenocephalides felis,2.4%
same,mortality at 1 ppm,cat fleas [1]; Ctenocephalides felis,2.4%
"CCC1OC2(CCC1C)CC1CC(CC=C(C)C(OC(=O)C3(c4ccc(NS(C)(=O)=O)cc4)CCCC3)C(C)C=CC=C3COC4C(O)C(C)=CC(C(=O)O1)C34O)O2 (stereo not drawn) [Example 4, 13-[1-(4-Methanesulfonylaminophenyl)cyclopentanecarbonyloxy]-5-hydroxy-milbemycin A4]",Mortality (%),cat fleas [1],100.0%
"C#CCCC(=O)Nc1ccc(C2(C(=O)OC3C(C)=CCC4CC(CC5(CCC(C)C(CC)O5)O4)OC(=O)C4C=C(C)C(O)C5OCC(=CC=CC3C)C45O)CCC2)cc1 (stereo not drawn) [Example 19, 13-[1-(4-Pentynoylaminophenyl)cyclobutanecarbonyloxy]-5-hydroxymilbemycin A4]",Mortality (%),cat fleas [2],90.7%
"CCC1OC2(CCC1C)CC1CC(CC=C(C)C(OC(=O)C3(c4ccc(NS(C)(=O)=O)cc4)CCC3)C(C)C=CC=C3COC4C(O)C(C)=CC(C(=O)O1)C34O)O2 (stereo not drawn) [Example 17, 13-[1-(4-Methanesulfonylaminophenyl)cyclobutanecarbonyloxy]-5-hydroxy-milbemycin A4]",Mortality (%),cat fleas [2],94.9%
"CCC1OC2(CCC1C)CC1CC(CC=C(C)C(OC(=O)C3(c4ccc(NC(=O)CO)cc4)CCCC3)C(C)C=CC=C3COC4C(O)C(C)=CC(C(=O)O1)C34O)O2 (stereo not drawn) [Example 5, 13-[1-(4-Hydroxyacetylaminophenyl)cyclopentanecarbonyloxy]-5-hydroxy-milbemycin A4]",Mortality (%),cat fleas [1],74.4%
"CCC1OC2(CCC1C)CC1CC(CC=C(C)C(OC(=O)C3(c4ccc(NC(=O)CC#N)cc4)CCCC3)C(C)C=CC=C3COC4C(O)C(C)=CC(C(=O)O1)C34O)O2 (stereo not drawn) [Example 3, 13-[1-(4-Cyanoacetylaminophenyl)cyclopentanecarbonyloxy]-5-hydroxymilbemycin A4]",Mortality (%),cat fleas [1],81.4%
CC[C@H]1O[C@]2(CC[C@@H]1C)C[C@@H]1C[C@@H](C/C=C(\C)[C@H](OC(=O)C3(c4ccc(NC(=O)COC)cc4)CCCC3)[C@@H](C)/C=C/C=C3\CO[C@@H]4[C@H](O)C(C)=C[C@@H](C(=O)O1)[C@]34O)O2 [Test Compound Solution],The death rate of mites (%),two-spotted spider mites; 0.1 ppm,98.5%
same,two-spotted spider mite (2 days after) dead,"two-spotted spider mites; 0.1 ppm, number of dead mites of total 65",64
same,two-spotted spider mite (2 days after) agony,"two-spotted spider mites; 0.1 ppm, number of mites in agony of total 65",1
same,Death rate of hatchlings (%),two-spotted spider mites; 1 ppm,30%
same,Death rate of mite eggs (%),two-spotted spider mites; 1 ppm,0%
same,The death rate of mites (%),two-spotted spider mites; 1 ppm,100%
same,The egg of two-spotted spider mite (7 days after) dead,two-spotted spider mites; 1 ppm,0
same,two-spotted spider mite (2 days after) dead,"two-spotted spider mites; 1 ppm, number of dead mites of total 55",55
same,Death rate of hatchlings (%),two-spotted spider mites; 10 ppm,100%
same,Death rate of mite eggs (%),two-spotted spider mites; 10 ppm,25%
same,The death rate of mites (%),two-spotted spider mites; 10 ppm,100%
same,The egg of two-spotted spider mite (7 days after) dead,two-spotted spider mites; 10 ppm,5
same,two-spotted spider mite (2 days after) dead,"two-spotted spider mites; 10 ppm, number of dead mites of total 39",39
same,Death rate of hatchlings (%),two-spotted spider mites; 100 ppm,100%
same,Death rate of mite eggs (%),two-spotted spider mites; 100 ppm,90%
same,The death rate of mites (%),two-spotted spider mites; 100 ppm,100%
same,The egg of two-spotted spider mite (7 days after) dead,two-spotted spider mites; 100 ppm,18
same,two-spotted spider mite (2 days after) dead,"two-spotted spider mites; 100 ppm, number of dead mites of total 48",48
"COCC(=O)Nc1ccc(C2(C(=O)OC3C(C)=CCC4CC(CC5(CCC(C)C(C)O5)O4)OC(=O)C4C=C(C)C(O)C5OCC(=CC=CC3C)C45O)CCCC2)cc1 (stereo not drawn) [Example 8, 13-[1-(4-Methoxyacetylaminophenyl)cyclopentanecarbonyloxy]-5-hydroxy-milbemycin A3]",Mortality (%),cat fleas [1],87.6%
"CCC1OC2(CCC1C)CC1CC(CC=C(C)C(OC(=O)C3(c4ccc(NC(C)=O)cc4)CCC3)C(C)C=CC=C3COC4C(O)C(C)=CC(C(=O)O1)C34O)O2 (stereo not drawn) [Example 16, 13-[1-(4-Acetylaminophenyl)cyclobutanecarbonyloxy]-5-hydroxymilbemycin A4]",Mortality (%),cat fleas [2],92.9%
